Test results: patent US11246873B2, “Directed differentiation of oligodendrocyte precursor cells to a myelinating cell fate” (The Scripps Research Institute, priority 2011, dated 2022)
“Also recorded” adds a separate entry of the source.

Assays:
[1] = test system: OPCs; assay: Western blot of MBP and MOG in compound treated OPCs; format: cell-based, rat; conditions: OPCs treated 6 days
Excerpt: FIG. 2A-C. Neurotransmitter receptor modulating agents induce the differentiation of OPCs to a myelinating oligodendrocyte cell fate. (A) Western blot analysis of OPCs treated with compounds at EC90 concentrations for 6 days. Total protein was isolated from cell pellets and probed for myelin basic protein (MBP) and myelin oligodendrocyte glycoprotein (MOG) using specific antibodies. (B-C) Quantitative RT-PCR (qRT-PCR) analysis of OPCs treated with compounds at EC90 concentrations for 6 days. Total RNA was isolated from cell pellets and reverse transcribed. MBP and MOG expression was quantified using specific probes and Taqman-based qRT-PCR. Expression was normalized to the internal controls β-actin and GAPDH. Fold change in gene expression over DMSO treated control cells is plotted for MBP (B) and MOG (C).
FIG. 13. […] After 6 days in culture, cells were analyzed for MBP and MOG expression by Western blot.

[2] = test system: OPCs; assay: Gene expression profile of treated OPCs (Affymetrix rat genome arrays); format: cell-based; conditions: 6 days
Method: FIG. 15. Gene expression profile of OPCs differentiated to oligodendrocytes by benztropine treatment. […] OPCs from the same passage were also pelleted and frozen. Total RNA was isolated from the cells and gene expression analysis was performed using rat genome arrays from Affymetrix. […] Data are represented as fold change over DMSO treated controls.
(A) Increased expression (fold change) of mature oligodendrocyte genes in compound treated cells as compared to DMSO treated cells. (B) Decreased expression (fold change) of OPC genes in compound treated cells as compared to DMSO treated cells.
Benztropine-induced in vitro differentiation of rodent OPCS was confirmed by evaluating the transcription and translation levels of the oligodendrocyte specific markers MBP and myelin oligodendroglial glycoprotein (MOG) by RT-PCR and Western blot analysis, respectively (FIGS. 7B and 13). Additionally, in vitro OPC differentiation activity was assessed by immunofluorescent analysis using multiple markers specifically expressed in mature oligodendrocytes (including MBP, MOG, 2′,3′-cyclic-nucleotide 3′-phosphodiesterase (CNP), […] (GalC), oligodendrocyte marker O1 (O1) and oligodendrocyte marker O4 (O4)) following six days of compound treatment (FIG. 14).

[3] = test system: OPCs; assay: qRT-PCR of cell cycle genes in OPCs; format: cell-based, rat; conditions: benztropine 1.5 uM
Excerpt: OPCs express mAChRs, predominantly subtypes M1, M3, and M5 (F. Ragheb et al., J Neurochem, 77, 1396 (2001)). […] Activation of M1 and M3 mAChRs is coupled to downstream signal transduction events through phospholipase C, which results in increased intracellular calcium concentrations (F. Ragheb et al., J Neurochem, 77, 1396 (2001)) (FIG. 23C). M2 and M4 mAChR activation inhibits adenylatecyclase, leading to decreased intracellular cAMP levels (C. C. Felder, FASEB J, 9, 619 (1995); M. Lopez-Ilasaca et al., Science, 275, 394 (1997)). […] Acetylcholine is a known regulator of OPC proliferation and, as such, muscarinic receptor subtypes represent a reasonable class of therapeutic targets for the modulation of OPC proliferation and differentiation (F. De Angelis et al., Dev Neurobiol, (2011)).

[4] = test system: spinal cord of EAE mice; assay: Histology of spinal cord sections from EAE mice (LFB, H&E, GST-π, NG2); format: in vivo, mouse; conditions: for LFB (myelin) staining in areas infiltrated by lymphocytes / lymphocyte / immune cell infiltration (H&E): 10 mg/kg, relapse phase
Excerpt: FIG. 26. […] Spinal cords were isolated from mice representative of the average group scores during the relapse phase of EAE, sectioned and stained with Luxol Fast Blue and H&E (left panel) and Luxol Fast Blue only (right panel). Arrows point to regions of lymphocyte infiltration.

[5] = test system: total splenocytes stimulated with CD3; assay: T-cell activation (CD69, CD25) and proliferation (CFSE) in vitro; format: cell-based, mouse; conditions: versus DMSO
Excerpt: (A-F) Total splenocytes were isolated from mice and stimulated with CD3 and analyzed by flow cytometry for expression of T-cell activation markers CD69 and CD25 and T-cell proliferation using CFSE. (A) Unstimulated cells. (B) DMSO treated cells. […] The numbers represent percentage gated populations positive for the given marker.
(§1) The primary immunological processes involved in MS and EAE are T-cell mediated and the primary treatment paradigms are based on immunomodulatory drugs (T. Kopadze et al., Arch Neurol, 63, 1572 (2006); J. M. Greer et al., J Immunol, 180, 6402 (2007), M. P. Pender and J. M. Greer, curr Allergy Asthma Rep, 7, 285 (2007)).

[6] = test system: splenocytes of EAE mice; conditions: mouse, in vivo, ip, 10 mg/kg
Method: (A-K) EAE was induced in mice by injecting PLP and pertussis toxin. […] Total splenocytes were isolated from the mice, stimulated with PMA and ionomycin, and analyzed for various populations of immune cells and cytokine secretion after 48 hours. Protein transport was blocked in cells used for cytokine analysis using Monoeiosin. […] Error bars indicate standard deviation of the mean within each group of 5 mice.
as §1

[7] = T-cell dependent and independent B-cell responses to TNP-KLH, TNP-LPS, TNP-Ficoll (serum IgG, IgM ELISA); format: in vivo, mouse; conditions: 10 mg/kg
Method: Serum was isolated at various time points and IgG and IgM levels were measured by ELISA. […] Error bars represent standard deviations from 3 replicate ELISAs performed on samples from 5 mice in each treatment group.
as §1

[8] = test system: caspase 3; assay: Western blot of caspase 3 and cleaved caspase 3 in differentiated OPCs; conditions: benztropine 1.5 uM, thyroid hormone 1 uM, 6 days
Excerpt: FIG. 32. Western blot analysis of cleaved caspase activity in differentiated OPCs. […] Total protein was isolated and analyzed by Western blot using a specific antibody for the expression of caspase 3 and cleaved caspase 3.

[9] = spinal cord sections of EAE mice

## CN1[C@@H]2CC[C@H]1C[C@@H](OC(c1ccccc1)c1ccccc1)C2 [benztropine]
[1]
  MBP and MOG expression (Western blot): positive
[1]; listed as Benztropine
  MBP and MOG expression (Western blot): induces differentiation of OPCs to mature oligodendrocytes
[2]; versus DMSO
  expression of OPC genes and mature oligodendrocyte genes: Downregulation of OPC specific genes required for proliferation; also recorded: downregulation of OPC genes and an upregulation of mature oligodendrocyte genes
[2]; benztropine 2.3 uM
  global clustering of gene expression profiles: cluster with those obtained from T3 treated positive control cells; also recorded: clustering of benztropine treated samples with thyroid hormone treated samples
[3]
  transcript levels of cyclin D1, cyclin D2, c-Fos, c-Jun: significantly decreased; also recorded: downregulation in cell cycle genes such as Cyclin D1, Cyclin D2, c-Fos, c-Jun
[4]
  LFB (myelin) staining in areas infiltrated by lymphocytes: a large number of immune cell infiltrated areas stained positive for LFB
  lymphocyte / immune cell infiltration (H&E): significant infiltration by H&E reactive immune cells
[4]; listed as Benztropine
  LFB (myelin) staining in areas infiltrated by lymphocytes: significantly increased LFB staining
  lymphocyte / immune cell infiltration (H&E): does not block lymphocyte infiltration
[4]; spinal cord of EAE mice, vehicle ~500
  number of GST-π positive mature oligodendrocytes: 1100 per field
[4]; [9]
  GST-π positive cells versus vehicle: increased GST-π positive cells
  number of NG2 positive cells versus vehicle: did not differ significantly; also recorded: no change
[5]
  T-cell activation (CD69, CD25): no effect
  T-cell proliferation (CFSE): no effect
[6]
  number of total splenocytes, CD4+, CD8+, CD4+/CD44Hi and CD8+/CD44Hi T-cells: no effect
[7]
  TNP-Ficoll induced B-cell responses (serum IgM and IgG): no effect on IgG and IgM production
  TNP-KLH induced B-cell responses (serum IgM and IgG): no effect on IgG and IgM production
  TNP-LPS induced B-cell responses (serum IgM and IgG): no effect on IgG and IgM production
[8]
  expression of cleaved caspase 3: No expression of cleaved caspase 3 was detected
